Values of other authors, collected in US20240174947A1, “SURFACTANT COMPOSITIONS” (LANKEM LTD., priority 2021, published 2024).

System: reconstructed human epidermis (RhE)
Conditions: for ET50: typical reference ET50 irritancy results for commonly used anionic and amphoteric surfactants; for Classification (expected in vivo irritancy): typical reference results for commonly used anionic and amphoteric surfactants, assigned from ET50

Compound | ET50 | Classification (expected in vivo irritancy)
Cocamidopropyl betaine | 29.4 h | Non-irritating (>24)
Sodium laureth sulfate | 10.25 h | Moderate to mild (4-12)
CCCCCCCCCCCCOS(=O)(=O)[O-].[Na+] [Sodium lauryl sulfate] | 9.37 h | Moderate to mild (4-12)
